Results as given in patent publication US9562085B2, “Antimicrobial peptide” (priority 2013, dated 2017).
Non-standard residues stand in square brackets, D forms with d. Residues, ends and D or L forms follow the SMILES beside them. *: point of attachment. Myristoyl = CCCCCCCCCCCCCC(=O)*; Decanoyl = CCCCCCCCCC(=O)*

System: S. aureus JAR
Format: cell-based
Conditions: JAR, 2 h
Experimental: S. aureus JAR is described in Campoccia et al. (Int. J. Artif. Organs, 2008 September; 31(9):841-7).
For the in vitro killing assay with P10 variants, S. aureus JAR ([…] CFU/ml) were incubated for 2 hours at 37° C. with various concentrations of the peptides in PBS or in PBS/human plasma (1/1, v/v). […] The LC99.9 is the average value of two independent experiments.

Compound	LC99.9 (μM) (50% plasma)	LC99.9 (μM) (PBS)
CCCCCCCCCC(=O)N[C@@H](CC(C)C)C(=O)N[C@@H](C)C(=O)N[C@@H](CCCNC(=N)N)C(=O)N[C@@H](CCC(=O)O)C(=O)N[C@@H](Cc1ccc(O)cc1)C(=O)N[C@@H](CCCCN)C(=O)N[C@@H](CCCCN)C(=O)N[C@H](C(=O)N[C@H](C(=O)N[C@@H](CCC(=O)O)C(=O)N[C@@H](CCCCN)C(=O)N[C@@H](CC(C)C)C(=O)N[C@@H](CCCCN)C(=O)N[C@@H](CCCNC(=N)N)C(=O)N[C@@H](Cc1c[nH]c2ccccc12)C(=O)N[C@@H](CC(C)C)C(=O)N[C@@H](CCCNC(=N)N)C(=O)N[C@@H](CCC(N)=O)C(=O)N[C@H](C(=O)N[C@@H](CC(C)C)C(=O)N[C@@H](CCCNC(=N)N)C(=O)N[C@H](C(=O)N[C@@H](CC(C)C)C(=O)N[C@@H](CCCNC(=N)N)C(N)=O)[C@@H](C)O)C(C)C)C(C)C)[C@@H](C)CC [Peptide 1302-9, jLAREYKKIVEKLKRWLRQVLRTLRB] (Decanoyl-LAREYKKIVEKLKRWLRQVLRTLR-NH2)	>102.4 µM	1.6 µM
CCCCCCCCCCCCCC(=O)N[C@@H](CC(C)C)C(=O)N[C@@H](C)C(=O)N[C@@H](CCCNC(=N)N)C(=O)N[C@@H](CCC(=O)O)C(=O)N[C@@H](Cc1ccc(O)cc1)C(=O)N[C@@H](CCCCN)C(=O)N[C@@H](CCCCN)C(=O)N[C@H](C(=O)N[C@H](C(=O)N[C@@H](CCC(=O)O)C(=O)N[C@@H](CCCCN)C(=O)N[C@@H](CC(C)C)C(=O)N[C@@H](CCCCN)C(=O)N[C@@H](CCCNC(=N)N)C(=O)N[C@@H](Cc1c[nH]c2ccccc12)C(=O)N[C@@H](CC(C)C)C(=O)N[C@@H](CCCNC(=N)N)C(=O)N[C@@H](CCC(N)=O)C(=O)N[C@H](C(=O)N[C@@H](CC(C)C)C(=O)N[C@@H](CCCNC(=N)N)C(=O)N[C@H](C(=O)N[C@@H](CC(C)C)C(=O)N[C@@H](CCCNC(=N)N)C(N)=O)[C@@H](C)O)C(C)C)C(C)C)[C@@H](C)CC [Peptide 1302-10, uLAREYKKIVEKLKRWLRQVLRTLRB] (Myristoyl-LAREYKKIVEKLKRWLRQVLRTLR-NH2)	102.4 µM	2.0 µM
CC[C@@H](C)[C@@H](NC(=O)[C@@H](CCCCN)NC(=O)[C@@H](CCCCN)NC(=O)[C@@H](Cc1ccc(O)cc1)NC(=O)[C@@H](CCC(=O)O)NC(=O)[C@@H](CCCNC(=N)N)NC(=O)[C@@H](C)NC(=O)[C@@H](CC(C)C)NC(C)=O)C(=O)N[C@@H](C(=O)N[C@H](CCC(=O)O)C(=O)N[C@H](CCCCN)C(=O)N[C@H](CC(C)C)C(=O)N[C@H](CCCCN)C(=O)N[C@H](CCCNC(=N)N)C(=O)N[C@H](Cc1c[nH]c2ccccc12)C(=O)N[C@H](CC(C)C)C(=O)N[C@H](CCCNC(=N)N)C(=O)N[C@H](CCC(N)=O)C(=O)N[C@@H](C(=O)N[C@H](CC(C)C)C(=O)N[C@H](CCCNC(=N)N)C(=O)N[C@@H](C(=O)N[C@H](CC(C)C)C(=O)N[C@H](CCCNC(=N)N)C(N)=O)[C@H](C)O)C(C)C)C(C)C [Peptide 1313-07, JlareykkiveklkrwlrqvlrtlrB] (Ac-[dL][dA][dR][dE][dY][dK][dK][dI][dV][dE][dK][dL][dK][dR][dW][dL][dR][dQ][dV][dL][dR][dT][dL][dR]-NH2)	25.6 µM	1.6 µM
Ac-AAREYKKIVEKLKRWLRQVLRTLR-NH2 [Peptide 1302-19, JAAREYKKIVEKLKRWLRQVLRTLRB]	76.8 µM	1.6 µM
Ac-EYKKIVEKLKRWLRQVLR-NH2 [Peptide 1302-61, JEYKKIVEKLKRWLRQVLRB]	102.4 µM	2.4 µM
Ac-IAREYKKIVEKLKRWLRQVLRTLR-NH2 [Peptide 1302-17, JIAREYKKIVEKLKRWLRQVLRTLRB]	102.4 µM	1.6 µM
Ac-KKIVEKLKRWLRQ-NH2 [Peptide 1302-63, JKKIVEKLKRWLRQB]	102.4 µM	>3.2 µM
Ac-LAHEYKKIVEKLKRWLRQVLRTLR-NH2 [Peptide 1302-24, JLAHEYKKIVEKLKRWLRQVLRTLRB]	102.4 µM	1.6 µM
Ac-LAKEYKKIVEKLKRWLRQVLRTLR-NH2 [Peptide 1302-23, JLAKEYKKIVEKLKRWLRQVLRTLRB]	102.4 µM	1.6 µM
Ac-LAREYHKIVEKLKRWLRQVLRTLR-NH2 [Peptide 1302-28, JLAREYHKIVEKLKRWLRQVLRTLRB]	102.4 µM	1.2 µM
Ac-LAREYKHIVEKLKRWLRQVLRTLR-NH2 [Peptide 1302-30, JLAREYKHIVEKLKRWLRQVLRTLRB]	102.4 µM	3.2 µM
Ac-LAREYKKIVEKAKRWLRQVLRTLR-NH2 [Peptide 1302-36, JLAREYKKIVEKAKRWLRQVLRTLRB]	76.8 µM	3.2 µM
Ac-LAREYKKIVEKIKRWLRQVLRTLR-NH2 [Peptide 1302-33, JLAREYKKIVEKIKRWLRQVLRTLRB]	102.4 µM	3.2 µM
Ac-LAREYKKIVEKLHRWLRQVLRTLR-NH2 [Peptide 1302-37, JLAREYKKIVEKLHRWLRQVLRTLRB]	102.4 µM	3.2 µM
Ac-LAREYKKIVEKLKHWLRQVLRTLR-NH2 [Peptide 1302-39, JLAREYKKIVEKLKHWLRQVLRTLRB]	102.4 µM	3.2 µM
Ac-LAREYKKIVEKLKKWLRQVLRTLR-NH2 [Peptide 1302-38, JLAREYKKIVEKLKKWLRQVLRTLRB]	102.4 µM	2.4 µM
Ac-LAREYKKIVEKLKRFLRQVLRTLR-NH2 [Peptide 1302-40, JLAREYKKIVEKLKRFLRQVLRTLRB]	76.8 µM	1.6 µM

Same assay, conditions: statements referring to Tables 2-6

Compound	antimicrobial activity, in words
CC[C@@H](C)[C@@H](NC(=O)[C@@H](CCCCN)NC(=O)[C@@H](CCCCN)NC(=O)[C@@H](Cc1ccc(O)cc1)NC(=O)[C@@H](CCC(=O)O)NC(=O)[C@@H](CCCNC(=N)N)NC(=O)[C@@H](C)NC(=O)[C@@H](CC(C)C)NC(C)=O)C(=O)N[C@@H](C(=O)N[C@H](CCC(=O)O)C(=O)N[C@H](CCCCN)C(=O)N[C@H](CC(C)C)C(=O)N[C@H](CCCCN)C(=O)N[C@H](CCCNC(=N)N)C(=O)N[C@H](Cc1c[nH]c2ccccc12)C(=O)N[C@H](CC(C)C)C(=O)N[C@H](CCCNC(=N)N)C(=O)N[C@H](CCC(N)=O)C(=O)N[C@@H](C(=O)N[C@H](CC(C)C)C(=O)N[C@H](CCCNC(=N)N)C(=O)N[C@@H](C(=O)N[C@H](CC(C)C)C(=O)N[C@H](CCCNC(=N)N)C(N)=O)[C@H](C)O)C(C)C)C(C)C [Peptide 1313-07, JlareykkiveklkrwlrqvlrtlrB] (Ac-[dL][dA][dR][dE][dY][dK][dK][dI][dV][dE][dK][dL][dK][dR][dW][dL][dR][dQ][dV][dL][dR][dT][dL][dR]-NH2)	possesses antimicrobial activity
